Common to all, as to type: physicochemical
The nature of series [1]: Miscibility of amines with water in the absence of CO2 (Example 5A). Here is the method: 1 mL of an appropriate amine was combined with 1 mL of H2O in a 4 mL vial, with the 1 and 2 mL volume lines marked. The vial was manually shaken and left to settle at room temperature. After the mixture settled, the number of phases was observed visually. This procedure was performed for all of the screened amines.

The nature of series [2]: Miscibility of amines with water in the presence of CO2 (Example 5B). As to conditions: CO2 bubbled through amine/water mixture for at least one hour. Here is the method: All of the amines that formed a biphasic mixture in Example 5A were subjected to the following test. Carbon dioxide was bubbled through the amine/water biphasic mixture, via a syringe needle, for at least one hour. Care was taken to regulate the rate of the CO2 bubbling, so as not to cause evaporation of the amine. The liquid-liquid interface was observed over the course of CO2 bubbling, and a photo was taken after 60 minutes.

Series [3] is described as follows: Water miscibility of amidines in neutral form and after CO2. The note with it: for miscibility with water, neutral (unprotonated) amidine form: no CO2. The text has this:
This represents relatively hydrophilic character. The amidines A-D are unsatisfactory for use as a switchable hydrophilicity solvent because they are insufficiently hydrophobic in their amidine form. […] Since such amidines are not separable from water after switching from their hydrophilic to hydrophobic forms, they are unsuitable for use in the present invention.
Exposure of a 1:1 by volume mixture of two immiscible liquids, hydrophobic PA and water, to gaseous CO2, at 1 atmosphere, caused a conversion to a hydrophilic liquid comprising an aqueous solution of N,N,N′-tripropylbutyramidinium bicarbonate (PAB) (see FIG. 1 for the chemical scheme in which R^1-4 are propyl). NMR data for the PA/water system is presented in FIGS. 4 and 5 and IR data in FIG. 6. FIGS. 4A and 5A show ^1H and ^13C NMR data for PA. After switching, the detection of the N,N,N′-tripropylbutyramidinium bicarbonate salt was confirmed by ^1H and ^13C NMR as shown in FIGS. 4B and 5B.
Similarly, exposure of a 1:1 by volume mixture of two immiscible liquids, hydrophobic BA and water, to gaseous CO2, at 1 atmosphere, caused a conversion to a hydrophilic liquid comprising an aqueous solution of N,N,N′-tributylpentanamidinium bicarbonate (BAB) (see FIG. 1 for the chemical scheme in which R^1-4 are butyl). NMR data for the […] is presented in FIGS. 7 and 8 and IR data in FIG. 9. […] show ^1H and ^13C NMR data for BA. After switching, the detection of the N,N,N′-tributylpentanamidinium bicarbonate salt was confirmed by ^1H and ^13C NMR as shown in FIGS. 6B and 7B. The hydrophilic aqueous solution of BAB was converted back into hydrophobic BA and water by heating at 80° C.

A short description of series [4]: Visual and NMR study of amine switchable hydrophilicity solvents (Example 6). As to conditions: for loss of volume after CO2 bubbling / time of CO2 bubbling to form one homogeneous solution / total volume after CO2 bubbling / number of layers formed without CO2: 1 mL amine + 1 mL D2O; for number of layers formed without CO2: room temperature. Here is the method: The following amines were evaluated in this series of experiments: N-ethylpiperidine, N,N-dimethylcyclohexylamine, and N,N-dimethylhexylamine. The sequence of experiments is described for one amine but was performed for all three. The visual observations are described in Table 3. 1,4-Dioxane was used as an internal standard for NMR spectroscopy.
Amine (1 mL) was combined with D2O (1 mL) in a 10 mL graduated cylinder, which was then capped with a rubber septum. The cylinder was manually shaken and left to settle at room temperature, after which the mixture appeared as two transparent liquid phases. For each amine, this procedure was simultaneously conducted in 3 identical cylinders. From the aqueous (bottom) layer of one of the three cylinders, three 250 μL samples were withdrawn, combined with equal volumes of D2O and dioxane internal standard, and analyzed by ^1H NMR spectroscopy. The spectra were consistent with the amine in the aqueous phase being in its neutral form. The graduated cylinder from which the samples were taken was discarded.
For each of two remaining graduated cylinders, carbon dioxide was bubbled through the amine/water biphasic mixture, via a syringe needle, for at least one hour. Care was taken to regulate the rate of the CO2 bubbling, so as not to cause significant evaporation of the amine. The mixture changed from a biphasic liquid mixture to a single homogeneous liquid phase. From one of the two graduated cylinders, a 300 μL sample of the homogenous liquid phase was withdrawn and mixed with an equal volume of D2O and a known quantity of dioxane internal standard. […] The graduated cylinder from which the sample was taken was discarded.
The remaining graduated cylinder, containing the single-phase amine/water/CO2 mixture prepared above, was heated in an oil bath at 80 deg. C for 1 hour. Phase separation was observed. Three 250 μL samples of the aqueous (bottom) layer were withdrawn, combined with equal volumes of D2O and a known quantity of dioxane internal standard, and analyzed by NMR spectroscopy.

Series [5] can be described thus: Converting ammonium bicarbonate salt to amine by bubbling air at room temperature (Example 5D). Here is the method:
A homogeneous aqueous solution of dimethylcyclohexylammonium bicarbonate was prepared by mixing N,N-dimethylcyclohexylamine (1 mL), and H2O (1 mL) and bubbling with CO2 for 90 minutes. The 2.0 mL solution was placed in a 10 mL graduated cylinder with a magnetic stir bar and that was then stoppered with a rubber septum. Air was bubbled through the solution for a total of 28 hours, with constant stirring. […] Total volume loss after 28 hours was 0.1 mL.

The mark [6] stands for this setting: 1 mL amine + 1 mL H2O, room temperature, visual.
[7] abbreviates: 2.0 mL aqueous solution, stirring.

Each structure is given as a SMILES string. “Also recorded” adds a separate entry of the source. Like-named read-outs stand apart in the source and are kept apart here.

In the case of `CN(C)CCCCN(C)C` [Me2NCH2CH2CH2CH2NMe2, reference compound], in series [1] (setting [6]), the “miscibility with water under air (absence of CO2)” value (“miscibility with water under air” below) is recorded as “miscible”.

Take `CN(C)c1ccccc1` [N,N-dimethylaniline, reference compound]: in series [1] (setting [6]), the “miscibility with water under air” value is “biphasic”. Also, the “miscibility with water after CO2 treatment” value in series [2] was “biphasic”.

In the case of `CCCN(CC)CCCCN(CC)CCC` [N,N′-dipropyl-N,N′-diethylbutane-1,4-diamine], the “miscibility with water under air” value in series [1] (setting [6]) was “biphasic”; in series [1] (1 mL amine + 1 mL H2O, room temperature, visual, listed as EtPrNCH2CH2CH2CH2NEtPr) it was “immiscible”. Further, the “miscibility with water after CO2 treatment” value is listed as “single-phase” in series [2] and “miscible” in series [2] (listed as EtPrNCH2CH2CH2CH2NEtPr).

Regarding `CCCCCCN=C(C)N(C)C` [Me2N—C(═N-hexyl)Me, reference compound], in series [3], the “miscibility with water, neutral (unprotonated) amidine form” value (“miscibility with water, neutral” below) is listed as “water-miscible”.

`C1CCC2=NCCCN2CC1` [DBU, 1,8-diazabicyclo-[5.4.0]-undec-7-ene, reference compound]: the “miscibility with water, neutral” value in series [3] is given as “water-miscible”.

For `CCCN=C(CCC)N(CCC)CCC` [PA, N,N,N′-tripropylbutyramidine], the “miscibility with water after CO2 trigger (amidinium bicarbonate form)” value in series [3] (CO2 and water) is on record as “became miscible”. In addition, in series [3], the “miscibility with water, neutral” value is listed as “immiscible with water”.

`CCN1CCOCC1` [N-ethylmorpholine, reference compound]: the “miscibility with water under air” value in series [1] (setting [6]) is recorded as “single-phase”.

For `CCN1CCCCC1` [N-ethylpiperidine], in series [1] (setting [6]), the “miscibility with water under air” value is listed as “immiscible with water; also recorded: biphasic”. Moreover, in series [2], the “miscibility with water after CO2 treatment” value is given as “became water-miscible; also recorded: single-phase”. For the same compound, in series [4], the “loss of volume after CO2 bubbling” value is on record as “(loss of 0.1 mL)”, the “time of CO2 bubbling to form one homogeneous solution” value was “took 60 min to form one”, the “total volume after CO2 bubbling” value is “total volume is 1.9 mL” and the “number of layers formed without CO2” value was “formed 2 layers;”. Also, in series [4] (80 deg. C, 1 hour, NMR spectroscopy, dioxane internal standard), the “amine remaining in the aqueous phase after heating” value is recorded as “showed that approximately 49%”. In addition, in series [4] (oil bath 80 deg. C), the “time of heating to separate into 2 layers” value is on record as “after 30 min, separated into 2” and the “volume of top layer after heating” value amounted to 0.7 mL. NMR spectroscopy.

As to `CCCN(CCC)CCC` [tripropylamine, reference compound], the “miscibility with water under air” value in series [1] (setting [6]) is “biphasic”. The “miscibility with water after CO2 treatment” value in series [2] is reported as “biphasic”.

With `CCN(CC)C1CCCCC1` [N,N-diethyl-N-cyclohexylamine], in series [1] (setting [6]), the “miscibility with water under air” value is reported as “immiscible with water”. Besides, in series [2], the “miscibility with water after CO2 treatment” value was “became water-miscible”.

Turning to `CCCCCCCCCCCCN(C)C` [N,N-dimethyldodecylamine, reference compound], the “miscibility with water under air” value in series [1] (setting [6]) is listed as “biphasic”. Further, in series [2], the “miscibility with water after CO2 treatment” value is “biphasic”.

As for `CN1CCCCC1` [N-methylpiperidine, reference compound], the “miscibility with water under air” value in series [1] (setting [6]) was “single-phase”.

Take `CCN(C(C)C)C(C)C` [N,N-diisopropylethylamine, reference compound]: in series [1] (setting [6]), the “miscibility with water under air” value was “biphasic”. In addition, the “miscibility with water after CO2 treatment” value in series [2] was “biphasic”.

With `CCN(C)CC` [N,N-diethyl-N-methylamine], in series [1] (setting [6]), the “miscibility with water under air” value was “immiscible with water”. Besides, the “miscibility with water after CO2 treatment” value in series [2] is listed as “became water-miscible”.

`CCCCCCCCN(CCCCCCCC)CCCCCCCC` [trioctylamine, reference compound]: the “miscibility with water under air” value in series [1] (setting [6]) was “biphasic”. The “miscibility with water after CO2 treatment” value in series [2] is given as “biphasic”.

On to `CCCN(CCC)CCCCN(CCC)CCC` [N,N,N′,N′-tetrapropylbutane-1,4-diamine, reference compound], for which, in series [1] (setting [6]), the “miscibility with water under air” value is on record as “biphasic”. Further, the entries for the “miscibility with water after CO2 treatment” value in series [2] and in series [2] (listed as Pr2NCH2CH2CH2CH2NPr2) were “biphasic” and “immiscible”, respectively.

Turning to `CCCCN1CCCC1` [N-butylpyrrolidine], the “miscibility with water under air” value in series [1] (setting [6]) is “immiscible with water; also recorded: biphasic”. The “miscibility with water after CO2 treatment” value in series [2] was “became water-miscible; also recorded: single-phase”.

Consider `CCCCCCN(C)C` [N,N-dimethylhexylamine], for which the “miscibility with water under air” value in series [1] (setting [6]) is given as “biphasic”. Besides, in series [1] (1 mL amine + 1 mL H2O, room temperature, visual, listed as dimethylhexylamine), the “miscibility with water under air” value is “immiscible with water”. Further, the “miscibility with water after CO2 treatment” value in series [2] is recorded as “single-phase”. In addition, the “miscibility with water after CO2 treatment” value in series [2] (listed as dimethylhexylamine) is reported as “became water-miscible”. For the same compound, in series [4], the “loss of volume after CO2 bubbling” value is given as “(loss of 0.1 mL)”, the “time of CO2 bubbling to form one homogeneous solution” value is on record as “took 75 min to form one”, the “total volume after CO2 bubbling” value is reported as “total volume is 1.9 mL” and the “number of layers formed without CO2” value is “formed 2 clear,”. In series [4] (oil bath 80 deg. C), the “time of heating to separate into 2 layers” value is on record as “after 30 min solution has”, the “volume of bottom (aqueous) layer after heating” value was determined as 1 mL and the “volume of top layer after heating” value was found to be 0.9 mL.

On to `CN(C)CC1CC(CN(C)C)CC(CN(C)C)C1` (centres unmarked) [1,1′,1″-(cyclohexane-1,3,5-triyl)tris(N,N-dimethylmethanamine], for which the “miscibility with water under air” value in series [1] (setting [6]) is given as “biphasic”. Besides, the “miscibility with water after CO2 treatment” value in series [2] was “single-phase”.

On to `CCCCN(C)C` [N,N-dimethylbutylamine], for which, in series [1] (setting [6]), the “miscibility with water under air” value is “biphasic”. Besides, in series [2], the “miscibility with water after CO2 treatment” value is given as “single-phase”.

For `CN(C)Cc1cc(CN(C)C)cc(CN(C)C)c1` [1,1′,1″-(benzene-1,3,5-triyl)tris(N,N-dimethylmethanamine)], in series [1] (setting [6]), the “miscibility with water under air” value is “biphasic”. In addition, the “miscibility with water after CO2 treatment” value in series [2] is listed as “single-phase”.

In the case of `CN(C)C1CCCCC1.O=C(O)O` [dimethylcyclohexylammonium bicarbonate], in series [5], the “total volume loss after 28 hours of air bubbling” value came to 0.1 mL, the “volume of bottom layer after 28 hours of air bubbling” value amounted to 1.6 mL and the “volume of top layer after 28 hours of air bubbling” value was determined as 0.3 mL. In addition, in series [5] (setting [7]), the “observation after 8 hours of air bubbling” value was “no observed phase separation or volume loss” and the “observation after 28 hours of air bubbling” value is reported as “a two-phase liquid mixture was observed”.

In the case of `CN(C)CCN(C)C` [N,N,N′,N′,-tetramethylethylenediamine, reference compound], the “miscibility with water under air” value in series [1] is “single-phase”.
